Assay results from patent US6875759B1, “Substituted guanidines and the use thereof” (Kadmus Pharmaceuticals, priority 1999, dated 2005).
“Also recorded” adds a separate entry of the source. Like-named read-outs stand apart in the source and are kept apart here.

What was measured:
[1] = tested on: hormone-independent prostate cancer cell line DU145; test: In vitro cytotoxicity, MTS (CellTiter 96 Aqueous Proliferation Assay), prostate cancer cells; format: cell-based, human
Method: (§1) FIG. 1 is a graph which compares the effects of the compound of Example 8 on normal human endothelial cells (AH-9) and human prostate cancer cells (DU145). Cells were exposed to the compound for seven days at the concentrations indicated. Cytotoxicity was assessed using the MTS assay.
(§2) In these experiments, cells were seeded at 400 cells per well 24 hours prior to addition of the test compound. Cells were grown at 37° C. in a humidified atmosphere of 95% air, 5% CO2 for 7 days with daily media changes. Cytotoxicity was assessed using the CellTiter 96 Aqueous Proliferation Assay (Promega, Madison, Wis.).
(§3) In a separate experiment (FIG. 1), normal human endothelial cells (AH-9) and human prostate cancer cells (DU145) were exposed to increasing concentrations of the compound of Example 8 for seven days.

[2] = tested on: human pancreatic cancer (HS766T) cells; format: in vivo; settings: daily i.p. for five days
From the text: FIG. 2B is a bar graph which depicts the effect of the compound of Example 8 on human pancreatic cancer in BDF/1 mice using the sub-renal capsule assay.
Human cancer cells can be grown in the sub-renal capsule of immuno-competent mice where, for a limited period of time, they escape detection by the mouse's immune system. Thus, the sub-renal capsule assay provides a convenient system to study the effect of drugs on the growth of tumor cells in vivo (Bogden, A. E., et al., Exp. Cell Biol. 47:281 (1979)). Briefly, female BDF mice weighing 18-20g were anesthetized, the left kidney exteriorized and a small nick was made in the kidney capsule for implantation of tumor cells. Approximately 1×10^6 human prostate (DU14) or pancreatic cancer (HS766T) cells were prepared as a fibrinogen-jelled pellet (Stratton, J. A., et al., Gynecol. Oncol. 19:336 (1984); Stratton, J. A., et al., Gynecol. Oncol. 30:416 (1988)) and implanted beneath the renal capsule. […] One day after the final injection, the animals were killed and the tumor volume was measured. Tumor growth was determined by subtracting the initial size of the implant from the size of the implant size following treatment (Stratton, J. A., et al., Gynecol Oncol. 19:336 (1984); Stratton, J. A., et al., Gynecol. Oncol. 30:416 (1988)).

[3] = tested on: breast cancer cell line HS578T; test: In vitro cytotoxicity, MTS assay, breast cancer cells; format: cell-based, human; settings: 7 days exposure, dose causing death to 50% of cells, read-out: Cell Survival ED 50 Breast
Method: as §2

[4] = tested on: pancreas cancer cell line HS766T; test: In vitro cytotoxicity, MTS assay, pancreas cancer cells; format: cell-based, human; settings: 7 days exposure, dose causing death to 50% of cells, read-out: Cell Survival ED 50 Pancreas
Method: as §2

[5] = Mouse formalin test pain model, late phase; format: in vivo
Method: The formalin test was conducted using standard procedures (Hunskaar et al., J. Neurosci. Meth. 14:69-76 (1985). Mice (male CF-1, 20-25 g) were placed in Plexiglass jars for at least 1 hr to accommodate to the environment
The animals received either test drug at 5-50 mg/kg p.o. or the appropriate volume of vehicle (normal saline). Thirty minutes after p.o. dosing mice were injected with formalin (20 μl of 2.5% formaldehyde solution in saline) into the dorsal surface of the right hind paw.
All experiments were done in a blinded manner. The late phase of the formalin response was measured as licking/biting from 10-50 minutes after formalin injection. Differences between groups were analyzed by one-way analysis of variance (ANOVA), A P value ≦0.05 was considered significant. Reduction in the time spent licking/biting in the late phase of the formalin response is considered an indication of a reduction in chronic pain.

[6] = tested on: normal human endothelial cells (AH-9); test: In vitro cytotoxicity, MTS assay, normal endothelial cells; format: cell-based; settings: AH-9 normal endothelial cells; separate experiment (FIG. 1); seven days; read-out: EC50 cytotoxic activity
Method: as §1, §3

[7] = tested on: DU145 prostate carcinoma xenografts; test: Anti-tumor activity in athymic mice bearing DU145 prostate carcinoma; format: in vivo, mouse; settings: male nude mice; 12.5 mg/kg/d i.p. daily for two weeks; FIG. 3; 12.5 mg/kg/day
Method: FIG. 3 is a graph showing the effect of the compound of Example 8, at a dose of zero mg/kg (filled circles) and at a dose of 12.5 mg/kg (open circles), on human prostate cancer xenographs in BALB/C/NU mice.
DU145 tumor cells were injected subcutaneously into the flank of male nude mice (day 0). Palpable tumors develop within 14 days at which time the animals were treated for two weeks with daily intraperitoneal injections of either the compound of Example 8 or the control vehicle. Tumors were measured every two days and volume of tumor was calculated using the formula: Tumor volume=length×[…] At the end of the study, tumors in control mice had nearly tripled in size. […] Mechanism of Action

[8] = tested on: human prostate (DU145) cancer cells; test: Mitochondrial membrane depolarization, JC-1 flow cytometry, prostate cancer cells; format: cell-based; settings: 25 μM, five hours following drug exposure
Method: FIGS. 5D-5F illustrate the effects of compound of Example 8 on human prostate cancer cells (DU145). Mitochondrial membrane depolarization was assessed by flow cytometry as measured by the fluorescence of cation, JC-1. Cells were exposed to 25 μM of the compound and fluorescence measured at: 0 hours (FIG. 5D), 2.5 hours (FIG. 5E) and 4.5 hours (FIG. 5F).
Mitochondrial membrane depolarization is an early event in apoptosis. […] These early changes in mitochondrial function can be detected using a fluorescent cation, JC-1, that emits a red color when sequestered in the mitochondria of healthy cells, or a green color when localized to the cytoplasm.
Human breast (HS578-T) and prostate (DU145) cancer cells were exposed to 25 μM of the compound of Example 8 for varying lengths of times. Both cell lines lost the capacity to sequester JC-1 in the mitochondrial compartment as indicated by a time-dependent increase in green vs. red fluorescence (FIGS. 5A-5F). In an attempt to better quantitate the results of these experiments, the scans were divided into quadrants. At time 0, greater than 90% of the dye was localized in the mitochondria in both breast and prostate cancer cells. By five hours following drug exposure, the mitochondria from the prostate and breast cells contained only 33% and 22% of the dye, respectively.

Cc1ccc(N=C(Nc2ccc(C)cc2)N2CCN(C/C=C/c3ccccc3)CC2)cc1 [Example 8, 1-[(N,N′-Di-p-tolyl)amidino]-(trans-1′-cinnamyl)piperizine]
EC50 ([1]; 7 days exposure, MTS, dose causing death to 50% of cells, read-out: Cell Survival ED 50 Prostate): 1300 nM | EC50 ([1]; separate experiment (FIG. 1), seven days, read-out: EC50 cytotoxic activity): 3400 nM | inhibition of tumor growth ([2]; pancreatic cancer cell line in mouse sub-renal capsule): greater than 95% | effect on tumor growth (in words) ([2]; pancreatic implant, FIG. 2B): dose-dependent and highly significant inhibition of tumor growth | EC50 [3]: 2300 nM | EC50 [4]: 1800 nM | late phase pain versus control vehicle (post-hoc Newman-Kuels test) ([5]; 30 mg/kg orally): different from control vehicle at P<0.05 | late phase pain versus control vehicle (post-hoc Newman-Kuels test) ([5]; 50 mg/kg orally): different from control vehicle at P<0.05 | effect on general behavior of the animals ([5]; at the doses effective in the formalin test, p.o.): did not affect the general behavior | time spent licking, late phase of formalin response (in words) ([5]; oral administration, 5-50 mg/kg, male CF-1 mice): dose-dependent reduction in the time spent licking | EC50 [6]: 95000 nM | tumor growth in xenograft (in words) [7]: active; also recorded: failed to grow | JC-1 dye contained in mitochondria [8]: 33%
